For 22 compounds, IC50 results are on record in patent US8349883B2, “Hydroxamate-based inhibitors of deacetylases B” (Novartis AG, priority 2008, dated 2013).

One assay has as its target T1, HDAC-1 (Homo sapiens, UniProt Q13547).
T1 construct: made in house; host or cells: Sf9 or Sf21 insect cells (baculovirus, donor vector pFB-GSTX3)
The experiment in a line: HDAC inhibition assay (purified GST-HDAC protein). The assay is classed as biochemical. The source says:
The baculovirus donor vector pFB-GSTX3 was used to generate a recombinant baculovirus that can express the HDAC polypeptide. Transfer vectors containing the HDAC coding region were transfected into the DH10Bac cell line (GIBCO) and plated on selective agar plates. Colonies without insertion of the fusion sequence into the viral genome (carried by the bacteria) were blue. Single, white colonies were picked and viral DNAs (bacmid) were isolated from the bacteria by standard plasmid purification procedures. Sf9 cells or Sf21 (American Type Culture Collection) cells were then transfected in […] flasks with the viral DNA using Cellfectin reagent.
Virus-containing media was collected from the transfected cell culture and used for infection to increase its titer. Virus-containing media obtained after two rounds of infection was used for large-scale protein expression. For large-scale protein expression 100 cm^2 round tissue culture plates were seeded with 5×10^7 cells/plate and infected with 1 mL of virus-containing media (at an approximately MOI of 5). After 3 days, the cells were scraped off the plate and centrifuged at 500 rpm for 5 minutes. Cell pellets from 10-20, 100 cm^2 plates, were re-suspended in 50 mL of ice-cold lysis buffer (25 mM tris-HCl, pH 7.5, 2 mM EDTA, 1% NP-40, 1 mM DTT, 1 mM P MSF). The cells were stirred on ice for 15 minutes and then centrifuged at 5,000 rpms for 20 minutes.
The centrifuged cell lysate was loaded onto a 2 mL glutathione-sepharose column (Pharmacia) and was washed thrice with 10 mL of 25 mM tris-HCl, pH 7.5, 2 mM EDTA, 1 mM DTT, 200 mM NaCl. The GST-tagged proteins were then eluted by 10 applications (1 mL each) of 25 mM tris-HCl, pH 7.5, 10 mM reduced-glutathione, 100 mM NaCl, 1 mM DTT, 10% glycerol and stored at −70° C.
HDAC assays with purified GST-HDAC protein were carried out in a final volume of 30 μL containing 15 ng of GST-HDAC protein, 20 mM tris-HCl, pH 7.5, 1 mM MnCl2, 10 mM MgCl2, 1 mM DTT, 3 μg/mL poly(Glu,Tyr) 4:1, 1% DMSO, 2.0 μM ATP (γ-[^33P]-ATP 0.1 μCi). The activity was assayed in the presence or absence of inhibitors. The assay was carried out in 96-well plates at ambient temperature for 15 minutes under conditions described below and terminated by the addition of 20 μL of 125 mM EDTA. Subsequently, 40 μL of the reaction mixture were transferred onto EMMOBILON-PVDF membrane (Millipore) previously soaked for 5 minutes with methanol, rinsed with water, then soaked for 5 minutes with 0.5% H3PO4 and mounted on vacuum manifold with disconnected vacuum source. After spotting all samples, a vacuum was connected and each well rinsed with 200 μL 0.5% H3PO4. Membranes were removed and washed four times on a shaker with 1.0% H3PO4, once with ethanol. Membranes were counted after drying at ambient temperature, mounting in Packard TopCount 96-well frame, and addition of 10 μL/well of MICROSCINT™ (Packard). IC50 values were calculated by linear regression analysis of the percentage inhibition of each compound in duplicate, at 4 concentrations (usually 0.01, 0.1, 1 and 10 μM).
• Input: 3×4 μL stopped assay on IMMOBILON membrane, not washed • Background (3 wells): assay with H2O instead of enzyme • Positive control (4 wells): 3% DMSO instead of compound • Bath control (1 well): no reaction mix
IC50 values were calculated by logarithmic regression analysis of the percentage inhibition of each compound at 4 concentrations (usually 3- or 10-fold dilution series starting at 10 μM). In each experiment, the actual inhibition by reference compound was used for normalization of IC50 values to the basis of an average value of the reference inhibitor: Normalized IC50=measured IC50 average ref IC50/measured ref IC50
Example: Reference inhibitor in experiment 0.4 μM, average 0.3 μM, Test compound in experiment 1.0 μM, normalization: 0.3/0.4=0.75 μM
For example, known HDAC inhibitors or a synthetic derivative thereof may be used as reference compounds.

The next assay has as its system HCT116. The assay can be described thus: HCT116 IC50. The assay is classed as cell-based. As to conditions: Homo sapiens, HCT-116.

T1 sequence (Q13547 whole entry, species assumed): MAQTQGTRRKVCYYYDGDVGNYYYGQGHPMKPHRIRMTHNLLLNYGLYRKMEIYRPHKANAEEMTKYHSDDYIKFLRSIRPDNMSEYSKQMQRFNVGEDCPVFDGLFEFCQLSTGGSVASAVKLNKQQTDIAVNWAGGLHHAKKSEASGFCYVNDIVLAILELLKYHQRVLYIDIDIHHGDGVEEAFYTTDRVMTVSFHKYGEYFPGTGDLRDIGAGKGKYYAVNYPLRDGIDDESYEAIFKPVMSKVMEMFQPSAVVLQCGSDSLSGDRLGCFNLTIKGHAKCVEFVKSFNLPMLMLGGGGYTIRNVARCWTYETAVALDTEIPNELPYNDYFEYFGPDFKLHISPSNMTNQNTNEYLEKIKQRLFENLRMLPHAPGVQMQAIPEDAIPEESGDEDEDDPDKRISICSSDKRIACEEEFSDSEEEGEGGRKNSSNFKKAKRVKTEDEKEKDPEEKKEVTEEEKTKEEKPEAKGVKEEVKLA

By IC50 is commonly meant the concentration that gives 50% inhibition. A high value points to lower potency. Consider `CCCCn1nc(C)c(CCN2CCC[C@H]2c2ccc(/C=C/C(=O)NO)cc2)c1C` [Compound 97, (E)-3-(4-{(S)-1-[2-(1-Butyl-3,5-dimethyl-1H-pyrazol-4-yl)-ethyl]-pyrrolidin-2-yl}-phenyl)-N-hydroxy-acrylamide], for which the IC50 against HDAC-1 and with HCT116 was 1.7 nM throughout. As to `O=C(/C=C/c1ccc(C2CCCN2CC2CCCC2)cc1)NO` (stereo not shown) [Compound 40, (E)-3-[4-(1-Cyclopentylmethyl-pyrrolidin-2-yl)-phenyl]-N-hydroxy-acrylamide], the values for the half-inhibitory concentration (IC50) against HDAC-1 and in the assay on HCT116 were 9 nM and 42 nM, respectively.

With `O=C(/C=C/c1ccc([C@@H]2CCCCN2CCc2cnn3ccccc23)cc1)NO` [Compound 85, (E)-N-Hydroxy-3-{4-[(S)-1-(2-pyrazolo[1,5-a]pyridin-3-yl-ethyl)-piperidin-2-yl]-phenyl}-acrylamide], the 50% inhibitory concentration (IC50) turned out to be 4 nM on HDAC-1 and 9 nM with HCT116.

For `Nc1ccc(-n2cc(CCN3CCC[C@H]3c3ccc(/C=C/C(=O)NO)cc3)nn2)cc1` [Compound 79, (E)-3-[4-((S)-1-{2-[1-(4-Amino-phenyl)-1H-[1,2,3]triazol-4-yl]-ethyl}-pyrrolidin-2-yl)-phenyl]-N-hydroxy-acrylamide], the figures for the IC50 on HDAC-1 and in the assay on HCT116 were 6 nM and 43 nM, respectively.

`O=C(/C=C/c1ccc([C@@H]2CCCN2CCc2cn(CCOCc3ccccc3)nn2)cc1)NO` [Compound 76, (E)-3-[4-((S)-1-{2-[1-(2-Benzyloxy-ethyl)-1H-[1,2,3]triazol-4-yl]-ethyl}-pyrrolidin-2-yl)-phenyl]N-hydroxy-acrylamide]: the half-inhibitory concentration (IC50) came to 31 nM against HDAC-1 and 210 nM with HCT116.

For the compound `O=C(/C=C/c1ccc([C@@H]2CCCN2CCc2cn(Cc3ccccc3)nn2)cc1)NO` [Compound 78, (E)-3-(4-{(S)-1-[2-(1-Benzyl-1H-[1,2,3]triazol-4-yl)-ethyl]-pyrrolidin-2-yl}-phenyl)-N-hydroxy-acrylamide], the half-maximal inhibitory concentration (IC50) against HDAC-1 turned out to be 22 nM; in the assay with HCT116, 120 nM. As to `O=C(CCc1ccc([C@H]2CCCN2CCc2cnn3ccccc23)cc1)NO` [Compound 121, N-Hydroxy-3-{4-[(R)-1-(2-pyrazolo[1,5-a]pyridin-3-yl-ethyl)-pyrrolidin-2-yl]-phenyl}-propionamide], the half-inhibitory concentration (IC50) on HDAC-1 came to 31 nM; in the assay with HCT116, 180 nM.

For `Cc1oc(-c2ccccc2)nc1CCN1CCC[C@H]1c1ccc(/C=C/C(=O)NO)cc1` [Compound 57, (E)-N-Hydroxy-3-(4-{(S)-1-[2-(5-methyl-2-phenyl-oxazol-4-yl)-ethyl]-pyrrolidin-2-yl}-phenyl)-acrylamide], the results for the IC50 against HDAC-1 and in the assay on HCT116 were 1.4 nM and 1 nM, respectively. Consider `CC(C)(O)c1nn2ccccc2c1CCN1CCC[C@H]1c1ccc(CCC(=O)NO)cc1` [Compound 113, N-Hydroxy-3-[4-((S)-1-{2-[2-(1-hydroxy-1-methyl-ethyl)-pyrazolo[1,5-a]pyridin-3-yl]-ethyl}-pyrrolidin-2-yl)-phenyl]-propionamide], for which, at HDAC-1, half-maximal inhibition (IC50) was put at 75 nM.

With `O=C(/C=C/c1ccc(C2CCCN2CCc2ccc([N+](=O)[O-])cc2)cc1)NO` (stereo not shown) [Compound 24, (E)-N-Hydroxy-3-(4-{1-[2-(4-nitro-phenyl)-ethyl]-pyrrolidin-2-yl}-phenyl)-acrylamide], the IC50 worked out at 8 nM against HDAC-1 and 43 nM in the assay on HCT116.

`CC(C)(C)c1[nH]c2ncccc2c1CCN1CCC[C@H]1c1ccc(/C=C/C(=O)NO)cc1` [Compound 52, (E)-3-(4-{(S)-1-[2-(2-tert-Butyl-1H-pyrrolo[2,3-b]pyridin-3-yl)-ethyl]-pyrrolidin-2-yl}-phenyl)-N-hydroxy-acrylamide]: the figures for the IC50 at HDAC-1 and in the assay on HCT116 were 2.7 nM and 4.3 nM, respectively.

In the case of `Cc1ccnn1CCN1CCC[C@H]1c1ccc(/C=C/C(=O)NO)cc1` [Compound 72, (E)-N-Hydroxy-3-(4-{(S)-1-[2-(5-methyl-pyrazol-1-yl)-ethyl]-pyrrolidin-2-yl}-phenyl)-acrylamide], the IC50 at HDAC-1 turned out to be 19 nM; with HCT116, 31 nM. For `Cc1nn(CCN2CCC[C@H]2c2ccc(/C=C/C(=O)NO)cc2)c(C)c1Br` [Compound 69, (E)-3-(4-{(S)-1-[2-(4-Bromo-3,5-dimethyl-pyrazol-1-yl)-ethyl]-pyrrolidin-2-yl}-phenyl)-N-hydroxy-acrylamide] the same measures were 25 nM and 170 nM. In the same order, the values of `Cc1cc2ccccc2n1CCN1CCCC1c1ccc(/C=C/C(=O)NO)cc1` (stereo not shown) [Compound 4, (E)-N-Hydroxy-3-(4-{1-[2-(2-methyl-indol-1-yl)-ethyl]-pyrrolidin-2-yl}-phenyl)-acrylamide] are 10 nM and 10 nM. For `O=C(/C=C/c1ccc([C@@H]2CCCN2CCc2c[nH]c3ncccc23)cc1)NO` [Compound 51, (E)-N-Hydroxy-3-(4-{(S)-1-[2-(1H-pyrrolo[2,3-b]pyridin-3-yl)-ethyl]-pyrrolidin-2-yl}-phenyl)-acrylamide] the same measures were 1.2 nM and 4 nM. For `CC(C)(C)c1[nH]c2cc([N+](=O)[O-])ccc2c1CCN1CCCC1c1ccc(/C=C/C(=O)NO)cc1` (stereo not shown) [Compound 9, (E)-3-(4-{1-[2-(2-tert-Butyl-6-nitro-1H-indol-3-yl)-ethyl]-pyrrolidin-2-yl}-phenyl)-N-hydroxy-acrylamide], the half-maximal inhibitory concentration (IC50) against HDAC-1 worked out at 7 nM; in the assay with HCT116, 0.5 nM.

`Cc1ccc(C(O)CN2CCCC2c2ccc(/C=C/C(=O)NO)cc2)cc1` (stereo not shown) [Compound 29, (E)-N-Hydroxy-3-{4-[1-(2-hydroxy-2-p-tolyl-ethyl)-pyrrolidin-2-yl]-phenyl}-acrylamide]: the IC50 stood at 8 nM at HDAC-1 and 40 nM in the assay with HCT116. With `Cc1nn(C)c(C)c1CCN1CCC[C@@H]1c1ccc(/C=C/C(=O)NO)cc1` [Compound 110, (E)-N-Hydroxy-3-(4-{(R)-1-[2-(1,3,5-trimethyl-1H-pyrazol-4-yl)-ethyl]-pyrrolidin-2-yl}-phenyl)-acrylamide], the 50% inhibitory concentration (IC50) against HDAC-1 worked out at 100 nM; with HCT116, 180 nM. In the same order, the values of `CCc1nn2ccccc2c1CCN1CCC[C@H]1c1ccc(/C=C/C(=O)NO)cc1` [Compound 47, (E)-3-(4-{(S)-1-[2-(2-Ethyl-pyrazolo[1,5-a]pyridin-3-yl)-ethyl]-pyrrolidin-2-yl}-phenyl)-N-hydroxy-acrylamide] are 1 nM and 0.35 nM. `Cc1n[nH]c(C)c1CCN1CCC[C@H]1c1ccc(CCC(=O)NO)cc1` [Compound 119, 3-(4-{(S)-1-[2-(3,5-Dimethyl-1H-pyrazol-4-yl)-ethyl]-pyrrolidin-2-yl}-phenyl)-N-hydroxy-propionamide]: 155 nM corresponded to half-maximal inhibition on HDAC-1 (IC50). In other words, the sub-micromolar range. Regarding `Cc1nn(CC2CCOCC2)c(C)c1CCN1CCC[C@H]1c1ccc(/C=C/C(=O)NO)cc1` [Compound 109, (E)-3-[4-((S)-1-{2-[3,5-Dimethyl-1-(tetrahydro-pyran-4-ylmethyl)-1H-pyrazol-4-yl]-ethyl}-pyrrolidin-2-yl)-phenyl]-N-hydroxy-acrylamide], the midpoint of inhibition against HDAC-1, the IC50, lay at 3.2 nM. Against the preceding compound, the IC50 is about 48-fold lower. As to `Cc1n[nH]c(C)c1CCN1CCC[C@@H]1c1ccc(/C=C/C(=O)NO)cc1` [Compound 117, (E)-3-(4-{(R)-1-[2-(3,5-Dimethyl-1H-pyrazol-4-yl)-ethyl]-pyrrolidin-2-yl}-phenyl)-N-hydroxy-acrylamide], the half-inhibitory concentration (IC50) against HDAC-1 came to 12 nM.
